Target: Btk enzyme (His-Btk) (Homo sapiens (Human), UniProt Q06187)
Assay: Btk enzyme activity, IMAP fluorescence polarization assay
Conditions: 60 min pre-incubation, 5 μM ATP

Btk enzyme (His-Btk), sequence (Q06187 whole entry): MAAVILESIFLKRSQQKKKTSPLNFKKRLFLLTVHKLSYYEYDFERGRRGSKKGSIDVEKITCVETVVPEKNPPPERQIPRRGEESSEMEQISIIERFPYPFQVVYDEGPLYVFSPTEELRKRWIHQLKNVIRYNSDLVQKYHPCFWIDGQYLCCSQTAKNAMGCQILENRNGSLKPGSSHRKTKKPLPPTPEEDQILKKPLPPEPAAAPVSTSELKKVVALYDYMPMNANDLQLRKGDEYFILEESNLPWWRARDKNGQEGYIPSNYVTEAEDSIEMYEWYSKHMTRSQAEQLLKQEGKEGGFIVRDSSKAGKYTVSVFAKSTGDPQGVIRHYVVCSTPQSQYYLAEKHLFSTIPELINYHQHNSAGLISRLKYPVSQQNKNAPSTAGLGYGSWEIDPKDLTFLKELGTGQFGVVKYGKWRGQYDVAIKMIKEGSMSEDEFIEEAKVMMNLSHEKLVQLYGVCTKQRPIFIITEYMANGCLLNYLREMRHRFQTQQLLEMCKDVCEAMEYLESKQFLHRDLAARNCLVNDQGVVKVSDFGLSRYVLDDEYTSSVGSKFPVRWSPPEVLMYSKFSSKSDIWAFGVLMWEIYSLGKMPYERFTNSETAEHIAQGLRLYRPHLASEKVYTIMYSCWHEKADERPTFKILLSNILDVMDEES

SMILES	EC50 Btk activity values (bin bound in nM) [nM]	EC50 Btk activity values (bin bound in μM) [nM]
Cc1cc(C(=O)Nc2ccccn2)ccc1-c1nc([C@@H]2CCCCN2C(=O)c2ccnc(Cl)n2)n2ccnc(N)c12 [Example 56, 4-(8-amino-3-((S)-1-(2-chloropyrimidine-4-carbonyl)piperidin-2-yl)imidazo[1,5-a]pyrazin-1-yl)-3-methyl-N-(pyridin-2-yl)benzamide]	<100	–
N#CCN1CCC[C@H]1c1nc(-c2ccc(C(=O)Nc3ccccn3)cc2)c2c(N)nccn12 [Example 94, (S)-4-(8-amino-3-(1-(cyanomethyl)pyrrolidin-2-yl)imidazo[1,5-a]pyrazin-1-yl)-N-(pyridin-2-yl)benzamide]	–	<1000
Nc1nccn2c([C@@H]3CCCCN3C(=O)c3ccnc(Cl)n3)nc(-c3ccc(C(=O)Nc4ncccn4)cc3)c12 [Example 90, (S)-4-(8-amino-3-(1-(2-chloropyrimidine-4-carbonyl)piperidin-2-yl)imidazo[1,5-a]pyrazin-1-yl)-N-(pyrimidin-2-yl)benzamide]	–	<1000
CC#CC(=O)N1CCCC[C@H]1c1nc(-c2ccc(C(=O)Nc3nccc(C)n3)cc2)c2c(N)nccn12 [Example 89, (S)-4-(8-amino-3-(1-but-2-ynoylpiperidin-2-yl)imidazo[1,5-a]pyrazin-1-yl)-N-(4-methylpyrimidin-2-yl)benzamide]	<100	–
COC/C=C/C(=O)N1CCC[C@H]1c1nc(-c2ccc(C(=O)Nc3ccccn3)c(OC)c2)c2c(N)nccn12 [Example 103, (S,E)-4-(8-amino-3-(1-(4-methoxybut-2-enoyl)pyrrolidin-2-yl)imidazo[1,5-a]pyrazin-1-yl)-2-methoxy-N-(pyridin-2-yl)benzamide]	<100	–
COC/C=C/C(=O)N1CCC[C@H]1c1nc(-c2ccc(C(=O)Nc3cc(OC)ccn3)cc2)c2c(N)nccn12 [Example 51, (S,E)-4-(8-amino-3-(1-(4-methoxybut-2-enoyl)pyrrolidin-2-yl)imidazo[1,5-a]pyrazin-1-yl)-N-(4-methoxypyridin-2-yl)benzamide]	<100	–
Cc1ccnc(NC(=O)c2ccc(-c3nc([C@@H]4CCCN4C(=O)/C=C/CN(C)C)n4ccnc(N)c34)cc2)c1 [Example 59, (S,E)-4-(8-amino-3-(1-(4-(dimethylamino)but-2-enoyl)pyrrolidin-2-yl)imidazo[1,5-a]pyrazin-1-yl)-N-(4-methylpyridin-2-yl)benzamide]	<100	–
CN(C)C/C=C/C(=O)N1CCC[C@H]1c1nc(-c2ccc(C(=O)Nc3cc(F)ccn3)cc2)c2c(N)nccn12 [Example 7, (S,E)-4-(8-Amino-3-(1-(4-(dimethylamino)but-2-enoyl)pyrrolidin-2-yl)imidazo[1,5-a]pyrazin-1-yl)-N-(4-fluoropyridin-2-yl)benzamide]	<100	–
CC#CC(=O)N1CCC[C@H]1c1nc(-c2ccc(C(=O)Nc3ccccn3)c(F)c2)c2c(N)nccn12 [Example 50, (S)-4-(8-amino-3-(1-but-2-ynoylpyrrolidin-2-yl)imidazo[1,5-a]pyrazin-1-yl)-2-fluoro-N-(pyridin-2-yl)benzamide]	<100	–
COC/C=C/C(=O)N1CCC[C@H]1c1nc(-c2ccc(C(=O)Nc3cc(F)ccn3)cc2)c2c(N)nccn12 [Example 53, (S,E)-4-(8-amino-3-(1-(4-methoxybut-2-enoyl)pyrrolidin-2-yl)imidazo[1,5-a]pyrazin-1-yl)-N-(4-fluoropyridin-2-yl)benzamide]	–	<1000
C=C(C(=O)N1CCC[C@H]1c1nc(-c2ccc(C(=O)Nc3ccccn3)cc2)c2c(N)nccn12)C(F)(F)F [Example 92, (S)-4-(8-amino-3-(1-(2-(trifluoromethyl)acryloyl)pyrrolidin-2-yl)imidazo[1,5-a]pyrazin-1-yl)-N-(pyridin-2-yl)benzamide]	–	<1000
COCC#CC(=O)N1CCC[C@H]1c1nc(-c2ccc(C(=O)Nc3ccccn3)cc2)c2c(N)nccn12 [Example 41, (S)-4-(8-Amino-3-(1-(4-methoxybut-2-ynoyl)pyrrolidin-2-yl)imidazo[1,5-a]pyrazin-1-yl)-N-(pyridin-2-yl)benzamide]	<100	–
COC/C=C/C(=O)N1CCC[C@H]1c1nc(-c2ccc(C(=O)Nc3cc(C#N)ccn3)cc2)c2c(N)nccn12 [Example 98, (S,E)-4-(8-amino-3-(1-(4-methoxybut-2-enoyl)pyrrolidin-2-yl)imidazo[1,5-a]pyrazin-1-yl)-N-(4-cyanopyridin-2-yl)benzamide]	<100	–
COC/C=C/C(=O)N1CCCC[C@H]1c1nc(-c2ccc(C(=O)Nc3ccon3)cc2)c2c(N)nccn12 [Example 54, (S,E)-4-(8-amino-3-(1-(4-methoxybut-2-enoyl)piperidin-2-yl)imidazo[1,5-a]pyrazin-1-yl)-N-(isoxazol-3-yl)benzamide]	–	<1000
CC(C)c1ccnc(NC(=O)c2ccc(-c3nc([C@@H]4CCCN4C(=O)c4ccnc(Cl)n4)n4ccnc(N)c34)cc2)c1 [Example 70, (S)-4-(8-amino-3-(1-(2-chloropyrimidine-4-carbonyl)pyrrolidin-2-yl)imidazo[1,5-a]pyrazin-1-yl)-N-(4-isopropylpyridin-2-yl)benzamide]	<100	–
COC/C=C/C(=O)N1CCC[C@H]1c1nc(-c2ccc(C(=O)Nc3nc4c(s3)CCCC4)cc2)c2c(N)nccn12 [Example 82, (S,E)-4-(8-amino-3-(1-(4-methoxybut-2-enoyl)pyrrolidin-2-yl)imidazo[1,5-a]pyrazin-1-yl)-N-(4,5,6,7-tetrahydrobenzo[d]thiazol-2-yl)benzamide]	<100	–
CCCc1ccnc(NC(=O)c2ccc(-c3nc([C@@H]4CCCCN4C(=O)/C=C/COC)n4ccnc(N)c34)cc2F)c1 [Example 114, (S,E)-4-(8-amino-3-(1-(4-methoxybut-2-enoyl)piperidin-2-yl)imidazo[1,5-a]pyrazin-1-yl)-2-fluoro-N-(4-propylpyridin-2-yl)benzamide]	<100	–
Nc1nccn2c([C@@H]3CCCN3C(=O)c3ccnc(Cl)n3)nc(-c3ccc(C(=O)Nc4cc(C(F)(F)F)ccn4)cc3)c12 [Example 119, (S)-4-(8-amino-3-(1-(2-chloropyrimidine-4-carbonyl)pyrrolidin-2-yl)imidazo[1,5-a]pyrazin-1-yl)-N-(4-(trifluoromethyl)pyridin-2-yl)benzamide]	<100	–
COC/C=C/C(=O)NCc1nc(-c2ccc(C(=O)Nc3ccccn3)cc2)c2c(N)nccn12 [Example 95, (E)-4-(8-amino-3-((4-methoxybut-2-enamido)methyl)imidazo[1,5-a]pyrazin-1-yl)-N-(pyridin-2-yl)benzamide]	<100	–
COC/C=C/C(=O)N1CCCC[C@H]1c1nc(-c2ccc(C(=O)Nc3ccccn3)cc2C)c2c(N)nccn12 [Example 85, 4-(8-amino-3-((S)-1-((E)-4-methoxybut-2-enoyl)piperidin-2-yl)imidazo[1,5-a]pyrazin-1-yl)-3-methyl-N-(pyridin-2-yl)benzamide]	–	<1000
CC#CC(=O)NCc1nc(-c2ccc(C(=O)Nc3ccccn3)cc2)c2c(N)nccn12 [Example 112, 4-(8-amino-3-(but-2-ynamidomethyl)imidazo[1,5-a]pyrazin-1-yl)-N-(pyridin-2-yl)benzamide]	<100	–
CN(C)C/C=C/C(=O)NCc1nc(-c2ccc(C(=O)Nc3ccccn3)cc2)c2c(N)nccn12 [Example 69, (E)-4-(8-amino-3-((4-(dimethylamino)but-2-enamido)methyl)imidazo[1,5-a]pyrazin-1-yl)-N-(pyridin-2-yl)benzamide]	<100	–
COC/C=C/C(=O)N1CCC[C@H]1c1nc(-c2ccc(C(=O)Nc3cc(C)ccn3)cc2)c2c(N)nccn12 [Example 57, (S,E)-4-(8-amino-3-(1-(4-methoxybut-2-enoyl)pyrrolidin-2-yl)imidazo[1,5-a]pyrazin-1-yl)-N-(4-methylpyridin-2-yl)benzamide]	<100	–
CC#CC(=O)N(C)[C@@H](C)c1nc(-c2ccc(C(=O)Nc3cc(CCC)ccn3)cc2)c2c(N)nccn12 [Example 113, (S)-4-(8-amino-3-(1-(N-methylbut-2-ynamido)ethyl)imidazo[1,5-a]pyrazin-1-yl)-N-(4-propylpyridin-2-yl)benzamide]	<100	–
C[C@H](NC(=O)c1ccnc(Cl)n1)c1nc(-c2ccc(C(=O)Nc3ccccn3)cc2)c2c(N)nccn12 [Example 105, (S)-N-(1-(8-amino-1-(4-(pyridin-2-ylcarbamoyl)phenyl)imidazo[1,5-a]pyrazin-3-yl)ethyl)-2-chloropyrimidine-4-carboxamide]	<100	–
CC#CC(=O)N1CCC[C@H]1c1nc(-c2ccc(C(=O)Nc3cc(N4CCCC4)ccn3)cc2)c2c(N)nccn12 [Example 96, (S)-4-(8-amino-3-(1-but-2-ynoylpyrrolidin-2-yl)imidazo[1,5-a]pyrazin-1-yl)-N-(4-(pyrrolidin-1-yl)pyridin-2-yl)benzamide]	<100	–
CCc1ccnc(NC(=O)c2ccc(-c3nc([C@@H]4CCCN4C(=O)/C=C/COC)n4ccnc(N)c34)cc2)c1 [Example 11, (S,E)-4-(8-Amino-3-(1-(4-methoxybut-2-enoyl)pyrrolidin-2-yl)imidazo[1,5-a]pyrazin-1-yl)-N-(4-ethylpyridin-2-yl)benzamide]	<100	–
Nc1nccn2c([C@@H]3CCCN3C(=O)c3ccnc(Cl)n3)nc(-c3ccc(C(=O)Nc4ccccn4)cc3)c12 [Example 5, (S)-4-(8-amino-3-(1-(2-chloropyrimidine-4-carbonyl)pyrrolidin-2-yl)imidazo[1,5-a]pyrazin-1-yl)-N-(pyridin-2-yl)benzamide]	<100	–
Nc1nccn2c([C@@H]3CCCN3C(=O)/C=C/CN3CCCC3)nc(-c3ccc(C(=O)Nc4ccccn4)cc3)c12 [Example 2, (S,E)-4-(8-amino-3-(1-(4-(pyrrolidin-1-yl)but-2-enoyl)pyrrolidin-2-yl)imidazo[1,5-a]pyrazin-1-yl)-N-(pyridin-2-yl)benzamide]	<100	–

Source: patent US10239883B2, “4-imidazopyridazin-1-yl-benzamides as BTK inhibitors” (Merck Sharp & Dohme B.V., priority 2011, dated 2019)
